{"source": "patent US9657351B2", "about": "“MRNA-based gene expression for personalizing patient cancer therapy with an MDM2 antagonist” (Hoffmann-La Roche Inc., priority 2013, dated 2017)", "test_in_all_cases": "COMPOUND A In Vitro Assay", "format_in_all_cases": "cell-based", "key": {"KMS-12-PE": {"system": "KMS-12-PE", "settings": "Homo sapiens, Plasma, TP53 Mutant", "description": "(§1) To generate an MDM2 antagonist therapy predictive signature, the response of MDM2 antagonist therapy in vitro with gene expression profiling (FIG. 1) is combined. A bank of 287 human cancer cell lines, collectively termed the Cell Lines for Oncology/Chugai ACcumulative Tumour EncycLopedia (CELLO/CACTEL), representing a broad array of diverse human cancer tumor types are subject to evaluation using several high-throughput genomic technology platforms. The mutational status of nucleic acids from each cell line is determined by exome sequencing. Messenger RNA (mRNA) expression levels at baseline, prior to MDM2 antagonist therapy, are obtained via RNA sequencing. MDM2 antagonist therapy COMPOUND A, sometimes referred to herein as RG7112, responses are obtained by assays known to those skilled in the art such as RNA sequencing and microarray measurement using Gene Chip Human Genome U133 Plus 2.0 Array. The MDM2 therapy responses are obtained by high throughout screening assays. Depending on their responses to COMPOUND A these cell lines are classified as either sensitive, defined as IC50<=1, or resistant, defined as IC50>=10.\n(§2) 281 cells are treated with MDM2 antagonists and the IC50 (therapy response) is generated. The cell lines span a broad range of tumor cell types of derivation."}, "SK-MES-1": {"system": "SK-MES-1", "settings": "Homo sapiens, Lung, TP53 Mutant", "description": "as §1, §2"}, "Capan-2": {"system": "Capan-2", "settings": "Homo sapiens, Pancreas, TP53 Mutant", "description": "as §1, §2"}, "SW837": {"system": "SW837", "settings": "Homo sapiens, Intestine, large, rectum, TP53 Mutant", "description": "as §1, §2"}, "KYSE-150": {"system": "KYSE-150", "settings": "Homo sapiens, Esophagus, TP53 Mutant", "description": "as §1, §2"}, "NCI-H716": {"system": "NCI-H716", "settings": "Homo sapiens, Intestine, large, caecum, TP53 Mutant", "description": "as §1, §2"}, "KMM-1": {"system": "KMM-1", "settings": "Homo sapiens, Lymphocyte, TP53 Mutant", "description": "as §1, §2"}, "ZR-75-1": {"system": "ZR-75-1", "settings": "Homo sapiens", "description": "as §1, §2"}, "Raji": {"system": "Raji", "settings": "Homo sapiens, Lymphocyte B, TP53 Mutant", "description": "as §1, §2"}, "J82": {"system": "J82", "settings": "Homo sapiens, Urinary, bladder, TP53 Mutant", "description": "as §1, §2"}, "A549": {"system": "A549", "settings": "Homo sapiens", "description": "as §1, §2"}, "NOMO-1": {"system": "NOMO-1", "settings": "Homo sapiens, Bone marrow, TP53 Mutant", "description": "as §1, §2"}, "Huh-7": {"system": "Huh-7", "settings": "Homo sapiens, Liver, TP53 Mutant", "description": "as §1, §2"}, "HCC1599": {"system": "HCC1599", "settings": "Homo sapiens, Breast, mammary gland, TP53 Mutant", "description": "as §1, §2"}, "SW620": {"system": "SW620", "settings": "Homo sapiens, SW-620, Intestine, large, colon, TP53 Mutant", "description": "as §1, §2"}, "ES2": {"system": "ES2", "settings": "Homo sapiens, ES-2, Ovary, TP53 NA", "description": "as §1, §2"}, "COLO-824": {"system": "COLO-824", "settings": "Homo sapiens, Breast, TP53 Wild type", "description": "as §1, §2"}, "NCI-H2030": {"system": "NCI-H2030", "settings": "Homo sapiens, Lung, TP53 Mutant", "description": "as §1, §2"}, "IMR-32": {"system": "IMR-32", "settings": "Homo sapiens", "description": "as §1, §2"}, "U-87 MG": {"system": "U-87 MG", "settings": "Homo sapiens", "description": "as §1, §2"}, "Calu-1": {"system": "Calu-1", "settings": "Homo sapiens, Lung, TP53 Wild type", "description": "as §1, §2"}, "HEC-151": {"system": "HEC-151", "settings": "Homo sapiens, Uterus, TP53 Mutant", "description": "as §1, §2"}, "T84": {"system": "T84", "settings": "Homo sapiens, Intestine, large, colon, TP53 Mutant", "description": "as §1, §2"}, "BxPC-3": {"system": "BxPC-3", "settings": "Homo sapiens, Pancreas, TP53 Mutant", "description": "as §1, §2"}, "Daoy": {"system": "Daoy", "settings": "Homo sapiens, Brain, cerebellum, TP53 Mutant", "description": "as §1, §2"}, "HCC1569": {"system": "HCC1569", "settings": "Homo sapiens, Breast, mammary gland, TP53 Mutant", "description": "as §1, §2"}, "DLD-1": {"system": "DLD-1", "settings": "Homo sapiens, Intestine, large, colon, TP53 Mutant", "description": "as §1, §2"}, "HDLM-2": {"system": "HDLM-2", "settings": "Homo sapiens, Lymphocyte B, TP53 Mutant", "description": "as §1, §2"}, "SK-N-DZ": {"system": "SK-N-DZ", "settings": "Homo sapiens, Brain, TP53 Mutant", "description": "as §1, §2"}, "HCC366": {"system": "HCC366", "settings": "Homo sapiens, Lung, TP53 Mutant", "description": "as §1, §2"}, "SK-BR-3": {"system": "SK-BR-3", "settings": "Homo sapiens, Pleura, TP53 Mutant", "description": "as §1, §2"}, "SW948": {"system": "SW948", "settings": "Homo sapiens, Intestine, large, colon, TP53 Mutant", "description": "as §1, §2"}, "143B": {"system": "143B", "settings": "Homo sapiens, Bone, TP53 Mutant", "description": "as §1, §2"}, "HCT116": {"system": "HCT116", "settings": "Homo sapiens, HCT-116, Intestine, large, colon, TP53 Wild type", "description": "as §1, §2"}, "JIMT-1": {"system": "JIMT-1", "settings": "Homo sapiens, Breast, TP53 Mutant", "description": "as §1, §2"}, "SK-MEL-30": {"system": "SK-MEL-30", "settings": "Homo sapiens, Skin, TP53 Mutant", "description": "as §1, §2"}}}
{"compound": "CCOc1cc(C(C)(C)C)ccc1C1=N[C@@](C)(c2ccc(Cl)cc2)[C@@](C)(c2ccc(Cl)cc2)N1C(=O)N1CCN(CCCS(C)(=O)=O)CC1", "note": "[COMPOUND A]", "values": [{"measurement": "IC50", "setting": "KMS-12-PE", "value": 5.3, "unit": "µM"}, {"measurement": "IC50", "setting": "SK-MES-1", "value": 6, "unit": "µM"}, {"measurement": "IC50", "setting": "Capan-2", "value": 9.1, "unit": "µM"}, {"measurement": "IC50", "setting": "SW837", "value": 12, "unit": "µM"}, {"measurement": "IC50", "setting": "KYSE-150", "value": 3, "unit": "µM"}, {"measurement": "IC50", "setting": "NCI-H716", "value": 13, "unit": "µM"}, {"measurement": "IC50", "setting": "KMM-1", "value": 19, "unit": "µM"}, {"measurement": "IC50", "setting": "ZR-75-1; ZR-75-1, ZR-75-1, Breast, mammary gland, TP53 Wild type", "value": 0.076, "unit": "µM"}, {"measurement": "IC50", "setting": "ZR-75-1; ZR-75-1, ZR-75-1 cells", "value": 0.1, "unit": "µM"}, {"measurement": "IC50", "setting": "Raji", "value": 3, "unit": "µM"}, {"measurement": "IC50", "setting": "J82", "value": 20, "unit": "µM"}, {"measurement": "IC50", "setting": "A549; A549, A549, Lung, TP53 Wild type", "value": 0.86, "unit": "µM"}, {"measurement": "IC50", "setting": "A549; A549, A549 cells", "value": 0.9, "unit": "µM"}, {"measurement": "IC50", "setting": "NOMO-1", "value": 6.3, "unit": "µM"}, {"measurement": "IC50", "setting": "Huh-7", "value": 10, "unit": "µM"}, {"measurement": "IC50", "setting": "HCC1599", "value": 12, "unit": "µM"}, {"measurement": "IC50", "setting": "SW620", "value": 9.8, "unit": "µM"}, {"measurement": "IC50", "setting": "ES2", "value": 3.3, "unit": "µM"}, {"measurement": "IC50", "setting": "COLO-824", "value": 15, "unit": "µM"}, {"measurement": "IC50", "setting": "NCI-H2030", "value": 9.2, "unit": "µM"}, {"measurement": "IC50", "setting": "IMR-32; IMR-32, IMR-32, Brain, TP53 Wild type", "value": 0.43, "unit": "µM"}, {"measurement": "IC50", "setting": "IMR-32; IMR-32, IMR-32 cells", "value": 0.4, "unit": "µM"}, {"measurement": "IC50", "setting": "U-87 MG; Brain, TP53 Wild type", "value": 0.18, "unit": "µM"}, {"measurement": "IC50", "setting": "U-87 MG; U-87 MG cells", "value": 0.2, "unit": "µM"}, {"measurement": "IC50", "setting": "Calu-1", "value": 14, "unit": "µM"}, {"measurement": "IC50", "setting": "HEC-151", "value": 2.2, "unit": "µM"}, {"measurement": "IC50", "setting": "T84", "value": 5.3, "unit": "µM"}, {"measurement": "IC50", "setting": "BxPC-3", "value": 18, "unit": "µM"}, {"measurement": "IC50", "setting": "Daoy", "value": 9.7, "unit": "µM"}, {"measurement": "IC50", "setting": "HCC1569", "value": 15, "unit": "µM"}, {"measurement": "IC50", "setting": "DLD-1", "value": 5.1, "unit": "µM"}, {"measurement": "IC50", "setting": "HDLM-2", "value": 33, "unit": "µM"}, {"measurement": "IC50", "setting": "SK-N-DZ", "value": 5.7, "unit": "µM"}, {"measurement": "IC50", "setting": "HCC366", "value": 8.7, "unit": "µM"}, {"measurement": "IC50", "setting": "SK-BR-3", "value": 21, "unit": "µM"}, {"measurement": "IC50", "setting": "SW948", "value": 19, "unit": "µM"}, {"measurement": "IC50", "setting": "143B", "value": 15, "unit": "µM"}, {"measurement": "IC50", "setting": "HCT116", "value": 0.5, "unit": "µM"}, {"measurement": "IC50", "setting": "JIMT-1", "value": 11, "unit": "µM"}, {"measurement": "IC50", "setting": "SK-MEL-30", "value": 19, "unit": "µM"}]}
